By IC50 is commonly meant the midpoint of a concentration-inhibition curve.

For assay [1], the target named is Nucleic Acid. Description: Inhibitory activity against mammalian DNA polymerase alpha. It counts as nucleic-acid assay.
Assay [2] has as its target Nucleic Acid. Description: Inhibitory activity against mammalian DNA polymerase beta. It counts as nucleic-acid assay.
For assay [3], the target named is DNA nucleotidylexotransferase (Homo sapiens, UniProt P04053). Description: Inhibitory activity against human terminal deoxynucleotidyltransferase.
Chain of DNA nucleotidylexotransferase (P04053 whole entry): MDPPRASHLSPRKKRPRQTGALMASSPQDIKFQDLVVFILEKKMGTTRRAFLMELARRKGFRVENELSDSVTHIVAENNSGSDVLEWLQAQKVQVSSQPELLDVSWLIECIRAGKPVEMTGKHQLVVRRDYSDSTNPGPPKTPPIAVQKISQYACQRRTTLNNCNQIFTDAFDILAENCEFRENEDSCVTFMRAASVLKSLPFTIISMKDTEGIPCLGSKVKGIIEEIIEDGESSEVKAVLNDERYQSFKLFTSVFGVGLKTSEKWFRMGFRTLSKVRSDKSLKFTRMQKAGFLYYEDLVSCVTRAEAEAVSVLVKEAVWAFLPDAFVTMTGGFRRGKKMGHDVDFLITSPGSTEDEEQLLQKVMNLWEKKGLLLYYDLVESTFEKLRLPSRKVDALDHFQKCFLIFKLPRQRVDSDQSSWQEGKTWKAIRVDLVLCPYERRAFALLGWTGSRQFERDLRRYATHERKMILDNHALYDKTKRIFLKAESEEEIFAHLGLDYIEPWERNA

Take `CCCCCCCCCCCCCCCC[C@H]1C=CC(=O)[C@@H]1C(=O)OC` (racemic): the figures for the IC50 in assay [1], in assay [2] and in assay [3] were 20 µM, 90 µM and 84 µM, respectively.
The corresponding values for `CCCCCCCCCCCCCCCCC1=C[C@H](C(=O)O)[C@H]2CC(C(=O)O)=C(CCCCCCCCCCCCCCCC)[C@H]2[C@H]1C(=O)OC` (racemic) are 1.9 µM, 3.2 µM and 2.5 µM.
The corresponding values for `CCCCCCCCCCCCCCCC[C@]1(O)C=CC(=O)C1` (racemic) are above 200 µM, above 200 µM and above 200 µM.
The corresponding values for `CCCCCCCCCCCCCCCC[C@]1(O)C=CC(=O)[C@H]1C(=O)OC` (racemic) [UNTENONE A] are 4.3 µM, 57 µM and 16 µM.
With `CCCCCCCCCCCCCCCCC1=C(C(=O)OC)C(=O)CC1`, the IC50 was 17 µM in assay [1], 107 µM in assay [2] and 129 µM in assay [3].
The corresponding values for `CCCCCCCCCCCCCCCC[C@]1(OCOC)C=CC(=O)[C@H]1C(=O)OC` (racemic) are 5.9 µM, 9.3 µM and 18 µM.
